In the NIST ThermoML archive (doi:10.1016/j.jct.2012.07.027):
Several values for one entry are separate records, joined by “and”; a condition that tells them apart may be missing. Equal values may be shown once.

Columns and labels:
[1] = Molar enthalpy of transition or fusion; settings: Crystal; DSC
[2] = for vapor or sublimation pressure: Closed cell (Static) method; for Normal melting temperature: DTA

COC(=O)c1ccc(F)cc1 [methyl p-fluorobenzoate]
Settings	Molar enthalpy of transition or fusion [kcal/mol]
[1]	3.68

[2], Liquid
Settings	vapor or sublimation pressure
268.58 K	0.00431 kPa
270.54 K	0.00518 kPa
272.52 K	0.00628 kPa
274.49 K	0.00754 kPa
276.46 K	0.00902 kPa
278.44 K	0.01071 kPa
280.4 K	0.01279 kPa
281.87 K	0.01451 kPa
283.38 K	0.0165 kPa
285.35 K	0.0195 kPa
287.34 K	0.02314 kPa
289.34 K	0.02719 kPa
291.34 K	0.0319 kPa
293.24 K	0.03702 kPa
295.27 K	0.04353 kPa
297.28 K	0.05103 kPa
299.22 K	0.05905 kPa
301.21 K	0.06815 kPa
303.17 K	0.07895 kPa
305.16 K	0.09121 kPa and 0.09107 kPa
307.18 K	0.1051 kPa
309.2 K	0.1209 kPa
311.15 K	0.1388 kPa
313.16 K	0.1594 kPa
315.12 K	0.1817 kPa
317.15 K	0.208 kPa
319.07 K	0.2349 kPa
321.11 K	0.2685 kPa
323.09 K	0.3015 kPa
325.07 K	0.3433 kPa
327.04 K	0.3848 kPa
329.03 K	0.4342 kPa
331 K	0.4875 kPa
332.99 K	0.549 kPa
334.97 K	0.6142 kPa
336.95 K	0.6904 kPa
338.92 K	0.7681 kPa
340.9 K	0.8612 kPa and 0.8627 kPa
342.87 K	0.9546 kPa
344.85 K	1.061 kPa

Settings	Normal melting temperature [°C]
[2], Crystal	0.6

COC(=O)c1ccc(I)cc1 [methyl p-iodobenzoate]
Settings	Molar enthalpy of transition or fusion [kcal/mol]
[1]	7.1

[2]
Settings	vapor or sublimation pressure [kPa]
313.11 K, Crystal	0.00044
315.03 K, Crystal	0.00054
317.12 K, Crystal	0.00069
319.05 K, Crystal	0.00087
321.04 K, Crystal	0.00108
323.04 K, Crystal	0.00134
325 K, Crystal	0.00165
326.97 K, Crystal	0.00206
329 K, Crystal	0.00253
330.93 K, Crystal	0.00315
332.89 K, Crystal	0.00387
334.91 K, Crystal	0.00478
336.94 K, Crystal	0.00583
342.8 K, Crystal	0.01054
346.74 K, Crystal	0.01524
350.73 K, Crystal	0.02236
352.75 K, Crystal	0.02707
356.66 K, Crystal	0.03886
358.67 K, Crystal	0.04652
360.6 K, Crystal	0.05489
362.63 K, Crystal	0.06557
364.61 K, Crystal	0.07801
366.58 K, Crystal	0.09145
368.45 K, Crystal	0.1085
370.54 K, Crystal	0.127
372.47 K, Crystal	0.1479
374.46 K, Crystal	0.1734
376.44 K, Crystal	0.2047
378.41 K, Crystal	0.2394
380.38 K, Crystal	0.2786
386.32 K, Liquid	0.4305
388.2 K, Liquid	0.4717
390.26 K, Liquid	0.5231
391.24 K, Liquid	0.5484
392.21 K, Liquid	0.5758
394.18 K, Liquid	0.6343
396.15 K, Liquid	0.698
398.14 K, Liquid	0.7666
400.1 K, Liquid	0.8418
402.07 K, Liquid	0.9228
404.04 K, Liquid	1.011
406.02 K, Liquid	1.106

Settings	Normal melting temperature [°C]
[2], Crystal	113.52

COC(=O)c1ccc(Cl)cc1 [methyl 4-chlorobenzoate]
Settings	Molar enthalpy of transition or fusion [kcal/mol]
[1]	5.09

[2]
Settings	vapor or sublimation pressure [kPa]
276.44 K, Crystal	0.00043
278.37 K, Crystal	0.00055
280.36 K, Crystal	0.00071
282.35 K, Crystal	0.00092
284.34 K, Crystal	0.00118
285.3 K, Liquid	0.00301
286.32 K, Crystal	0.00148
287.31 K, Liquid	0.00363
288.29 K, Crystal	0.00191
289.27 K, Liquid	0.00436
290.31 K, Crystal	0.00242
291.28 K, Liquid	0.0052
292.3 K, Crystal	0.00308
293.26 K, Liquid	0.00618
294.26 K, Crystal	0.00389
295.27 K, Liquid	0.00739
296.29 K, Crystal	0.00489
297.26 K, Liquid	0.00872
298.24 K, Crystal	0.00611
299.23 K, Liquid	0.01031
300.23 K, Crystal	0.00765
301.21 K, Liquid	0.01212
302.21 K, Crystal	0.00956
303.18 K, Liquid	0.01428
304.18 K, Crystal	0.01181
305.19 K, Liquid	0.01678
306.12 K, Crystal	0.01452
307.17 K, Liquid	0.01959
308.18 K, Crystal	0.01815
309.12 K, Liquid	0.02291
310.15 K, Crystal	0.0222
311.13 K, Liquid	0.02675
312.09 K, Crystal	0.02704
313.12 K, Liquid	0.0311
314.62 K, Liquid	0.03483
316.12 K, Liquid	0.03877
318.07 K, Liquid	0.0448
318.88 K, Liquid	0.04755
321.14 K, Liquid	0.05585
322.9 K, Liquid	0.06343
324.86 K, Liquid	0.07327
327.05 K, Liquid	0.084
329.03 K, Liquid	0.0959
331 K, Liquid	0.1092
332.98 K, Liquid	0.125
333.97 K, Liquid	0.1325

Settings	Normal melting temperature [°C]
[2], Crystal	41.98

COC(=O)c1ccc(Br)cc1 [methyl 4-bromobenzoate]
Settings	Molar enthalpy of transition or fusion [kcal/mol]
[1]	6.17

[2]
Settings	vapor or sublimation pressure [kPa]
293.31 K, Crystal	0.00042
295.32 K, Crystal	0.00054
297.3 K, Crystal	0.00068
299.26 K, Crystal	0.00087
301.24 K, Crystal	0.00109
303.23 K, Crystal	0.00139
305.21 K, Crystal	0.00173
307.22 K, Crystal	0.0022
309.17 K, Crystal	0.00277
311.2 K, Crystal	0.00345
313.13 K, Crystal	0.00422
315.14 K, Crystal	0.00523
317.13 K, Crystal	0.00651
319.04 K, Crystal	0.00797
321.09 K, Crystal	0.00985
323.08 K, Crystal	0.0121
325.13 K, Crystal	0.01501
327 K, Crystal	0.01789
329.05 K, Crystal	0.02213
331.03 K, Crystal	0.02686
333 K, Crystal	0.0324
335.03 K, Crystal	0.03924
336.96 K, Crystal	0.04713
338.94 K, Crystal	0.05664
340.91 K, Crystal	0.0673
342.9 K, Crystal	0.0811
344.79 K, Crystal	0.09642
346.85 K, Crystal	0.1156
348.81 K, Crystal	0.1363
354.73 K, Liquid	0.2096
356.68 K, Liquid	0.233
358.69 K, Liquid	0.259
360.68 K, Liquid	0.2932
362.63 K, Liquid	0.3282
364.63 K, Liquid	0.365
366.59 K, Liquid	0.4053
368.56 K, Liquid	0.4511
370.53 K, Liquid	0.5029
372.52 K, Liquid	0.5539
374.48 K, Liquid	0.6187
376.42 K, Liquid	0.6825
378.43 K, Liquid	0.752

Settings	Normal melting temperature [°C]
[2], Crystal	78.07
